This note sets out measurements from patent publication US9522139B2, “Fructose 1, 6-biphosphatases as new targets for diagnosing and treating breast cancer brain metastasis” (The University of Houston System, priority 2011, dated 2016).

In experiment [1] the test system is MDA-MB-231Br3 cells. The experiment is described as follows: Resistance to chemotherapeutic reagents, brain metastatic vs parental cells (FIG. 1A). Format: cell-based. Particulars: MDA-MB-231Br3 vs parental MDA-MB-231, triplicates.
For experiment [2], the system named is MDA-MB-231Br3 cells. The experiment is described as follows: Cell survival assay (trypan blue uptake) in glucose-free medium. It is filed as cell-based.
Protocol: By way of non-limiting example, to test the role of BCAAs in the survival of brain metastatic breast cancer cells, changes in the concentrations of BCAAs over time can be measured in MDA-MB-231 and MDA-MB-231Br3 cells when cultured in a glucose-free medium. […] To measure the ability of these two types of cells to oxidize BCAAs, ^14C-Leucine can be added to the culture media and the resulting ^14CO2 measured after 8 hours of incubation. […] To investigate the mechanism by which brain metastatic cells gain such higher activity of BCAA oxidation, the levels of the rate limiting enzymes of BCAA oxidation, branched chain ketoacids dehydrogenase E1 subunit (BCKDH-E1), the inactivated form of BCKDH-E1, pSer293-BCDKH-E1 (phosphorylated at serine 293 of the E1 subunit), the BCKDH inactivating kinase, and the branched chain ketoacids dehydrogenase kinase (BDK) can be determined in both brain metastatic cells and parental cells. […] Also, to test the pro-survival role of BCAAs in MDA-MB-231Br3 cells, BCAAs can be removed from the glucose-free medium containing glutamine. […] For these tests, trypanblue uptake can used to identify dead cells, and triplicates of samples can be used in each group.
Cells were seeded in 6-well plates in full MEM medium containing 5% dialyzed FBS and supplemented with 100 IU/ml penicillin and 100 μg/ml streptomycin (Invitrogen, CA, USA) and 292 ug/ml L-Glutamine (Invitrogen, CA, USA). Medium were replaced with modified MEM after 12 hours. Modified MEM contains basic formula of 5% dialyzed FBS and 100 IU/ml penicillin and 100 μg/ml streptomycin, other supplements like glutamine, glucose, etc. were added in the basic formula according to different needs of experimental groups. Both cell culture medium and trysinized cells were collected after 48 hours and stained with trypan blue. Viability counting was counted by Countess® Automated Cell Counter (Invitrogen, CA, USA).

Consider `COc1cccc2c1C(=O)c1c(O)c3c(c(O)c1C2=O)C[C@@](O)(C(=O)CO)C[C@@H]3O[C@H]1C[C@H](N)[C@H](O)[C@H](C)O1` [adriamycin], for which the “resistance of MDA-MB-231Br3 cells to chemotherapeutic reagent relative to parental cells” value in the experiment on MDA-MB-231Br3 cells [1] is “more resistance”.
Take `O=C(O[C@@H]1Cc2c(O)cc(O)cc2O[C@@H]1c1cc(O)c(O)c(O)c1)c1cc(O)c(O)c(O)c1` [EGCG, epigallocatechin gallate]: in the experiment with MDA-MB-231Br3 cells [2] (MDA-MB-231Br3 cells cultured in glucose-free medium, trend reverted upon addition of α-KG, FIG. 2D), the “cell death upon inhibition of GLUD” value was “dose dependent cell death”. For the same compound, the “effect of incremental removal of BCAAs on sensitivity to GLUD inhibition” value in the experiment on MDA-MB-231Br3 cells [2] (MDA-MB-231Br3 cells, glucose-free medium, 24 hour treatment, FIG. 3G) is recorded as “significantly sensitizes”. For the same compound, the “sensitivity to GLUD inhibition, brain metastatic cells vs parental MDA-MB-231 cells” value with MDA-MB-231Br3 cells [2] (in the absence of glucose, FIG. 2D) is listed as “more sensitive”.
As to `CC(=O)O[C@H]1C(=O)[C@@]2(C)[C@H]([C@H](OC(=O)c3ccccc3)[C@]3(O)C[C@H](OC(=O)[C@H](O)[C@@H](NC(=O)c4ccccc4)c4ccccc4)C(C)=C1C3(C)C)[C@]1(OC(C)=O)CO[C@@H]1C[C@@H]2O` [Taxol], the “resistance of MDA-MB-231Br3 cells to chemotherapeutic reagent relative to parental cells” value in the experiment on MDA-MB-231Br3 cells [1] was “more resistance”.
